According to ChEMBL document CHEMBL1201862, “PubChem BioAssay data set” (2004):
Structures can show the parent of a compound that is named as a salt.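 How tested: cells in 96-well plates exposed to compound for 48 hours at five concentrations. Here, GI50 denotes the concentration required for 50% inhibition of growth.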 Calls of active or inactive are those of the source. Rule as the data show it: active = GI50 up to about 1.1 µM and inactive = higher.

How the values were obtained:
Experiment in all cases: NCI tumour cell line growth inhibition, 48 h
CAKI-1 = test system: CAKI-1
COLO 205 = test system: COLO 205
HCC 2998 = test system: HCC 2998
HCT-116 = test system: HCT-116
HCT-15 = test system: HCT-15
MCF7 = test system: MCF7
NCI-H23 = test system: NCI-H23
NCI-H460 = test system: NCI-H460
NCI-H522 = test system: NCI-H522
PC-3 = test system: PC-3
RPMI-8226 = test system: RPMI-8226
SF-268 = test system: SF-268
SF-295 = test system: SF-295
SK-MEL-2 = test system: SK-MEL-2
SNB-19 = test system: SNB-19
SNB-75 = test system: SNB-75
U-251 = test system: U-251
A549 = test system: A549
Malme-3M = test system: Malme-3M
SK-OV-3 = test system: SK-OV-3

Row | SMILES | GI50 (CAKI-1) | GI50 (COLO 205) | GI50 (HCC 2998) | GI50 (HCT-116) | GI50 (HCT-15) | GI50 (MCF7) | GI50 (NCI-H23) | GI50 (NCI-H460) | GI50 (NCI-H522) | GI50 (PC-3) | GI50 (RPMI-8226) | GI50 (SF-268) | GI50 (SF-295) | GI50 (SK-MEL-2) | GI50 (SNB-19) | GI50 (SNB-75) | GI50 (U-251) | GI50 (A549) | GI50 (Malme-3M) | GI50 (SK-OV-3)
1 | COc1ccc(C2CC(=O)CC(c3ccc(OC)cc3)C23C(=O)NC(=S)NC3=O)cc1 (stereo not given) | > 100 µM (inactive) | > 100 µM (inactive) | > 100 µM (inactive) | > 100 µM (inactive) | > 100 µM | > 100 µM (inactive) | > 100 µM (inactive) | > 100 µM (inactive) | > 100 µM (inactive) | > 100 µM (inactive) | > 10 µM (inactive) | > 100 µM (inactive) | > 100 µM (inactive) | > 100 µM (inactive) | > 100 µM (inactive) | > 100 µM (inactive) | > 100 µM (inactive) | – | – | –
2 | Oc1ccc(C(O)C2CCCCN2)cc1O (stereo not given) [RIMITEROL HYDROBROMIDE] | > 100 µM (inactive) | > 100 µM (inactive) | – | > 100 µM (inactive) | > 100 µM | > 100 µM (inactive) | > 100 µM (inactive) | > 100 µM (inactive) | > 100 µM (inactive) | > 100 µM (inactive) | 54.7 µM (inactive) | > 100 µM (inactive) | > 100 µM (inactive) | > 100 µM (inactive) | > 100 µM (inactive) | > 100 µM (inactive) | > 100 µM (inactive) | > 100 µM (inactive) | > 100 µM (inactive) | > 100 µM (inactive)
3 | CCOC(=O)c1nnsc1NN | 76.2 µM (inactive) | > 100 µM (inactive) | > 100 µM (inactive) | 55.5 µM (inactive) | > 100 µM | 60.5 µM (inactive) | > 100 µM (inactive) | 55.8 µM (inactive) | > 100 µM (inactive) | > 100 µM (inactive) | – | > 100 µM (inactive) | > 100 µM (inactive) | > 100 µM (inactive) | > 100 µM (inactive) | > 100 µM (inactive) | > 100 µM (inactive) | 62.5 µM (inactive) | – | > 100 µM (inactive)
4 | COc1ccccc1N1C(=O)CSC1c1cccc(Oc2ccccc2)c1 (stereo not given) | 23.8 µM (inactive) | 18.6 µM (inactive) | – | 17.6 µM (inactive) | 17.2 µM | 18.2 µM (inactive) | 20.8 µM (inactive) | 18.2 µM (inactive) | 16.2 µM (inactive) | 17.6 µM (inactive) | – | 17.5 µM (inactive) | 19.4 µM (inactive) | 15.8 µM (inactive) | 23.8 µM (inactive) | 18.7 µM (inactive) | 17 µM (inactive) | 21.8 µM (inactive) | 16.3 µM (inactive) | 34.8 µM (inactive)
5 | CC(=O)OCC1OC(Sc2nc(-c3ccccc3)c(C#N)c(=O)n2C2OC(COC(C)=O)C(OC(C)=O)C(OC(C)=O)C2OC(C)=O)C(OC(C)=O)C(OC(C)=O)C1OC(C)=O (stereo not given) | > 100 µM (inactive) | > 100 µM (inactive) | 8.11 µM (inactive) | > 100 µM (inactive) | > 100 µM | > 100 µM (inactive) | > 100 µM (inactive) | > 100 µM (inactive) | > 100 µM (inactive) | > 100 µM (inactive) | > 100 µM (inactive) | > 100 µM (inactive) | > 100 µM (inactive) | > 100 µM (inactive) | – | > 100 µM (inactive) | > 100 µM (inactive) | > 100 µM (inactive) | – | > 100 µM (inactive)
6 | O=C1/C(=C/c2cccc(Br)c2)Cc2ccccc21 | 75.7 µM (inactive) | 32.1 µM (inactive) | – | 27.6 µM (inactive) | 49.4 µM | 3.66 µM (inactive) | 25.9 µM (inactive) | 30.8 µM (inactive) | 96.4 µM (inactive) | 29.9 µM (inactive) | 32.8 µM (inactive) | 53.6 µM (inactive) | 39.7 µM (inactive) | 28.8 µM (inactive) | 50.6 µM (inactive) | > 100 µM (inactive) | > 100 µM (inactive) | 26.8 µM (inactive) | > 100 µM (inactive) | 93.1 µM (inactive)
7 | CC1(C)CCCCCCC2CC2CCCCCC(C)(C)C1=O (stereo not given) | > 100 µM (inactive) | 63.1 µM (inactive) | – | 39.1 µM (inactive) | 78.7 µM | – | 69.2 µM (inactive) | 66.2 µM (inactive) | 51.9 µM (inactive) | > 100 µM (inactive) | 24.4 µM (inactive) | > 100 µM (inactive) | > 100 µM (inactive) | 40.6 µM (inactive) | > 100 µM (inactive) | > 100 µM (inactive) | 36.6 µM (inactive) | 45.7 µM (inactive) | > 100 µM (inactive) | > 100 µM (inactive)
8 | COc1cc2c(cc1-c1coc3cc(O)ccc3c1=O)OCO2 [CUNEATIN] | 24 µM (inactive) | > 100 µM (inactive) | 39.7 µM (inactive) | 18.7 µM (inactive) | 18.6 µM | 35.3 µM (inactive) | 19.5 µM (inactive) | 18.1 µM (inactive) | 16.4 µM (inactive) | 43 µM (inactive) | 26.5 µM (inactive) | 19.3 µM (inactive) | 20.4 µM (inactive) | 37 µM (inactive) | 19.5 µM (inactive) | 20.5 µM (inactive) | 21.5 µM (inactive) | 30.3 µM (inactive) | – | 19.9 µM (inactive)
9 | OCCN(CCO)c1ccc2c(c1)Cc1ccccc1-2 | 10.3 µM (inactive) | 18.4 µM (inactive) | 64.3 µM (inactive) | 21 µM (inactive) | 43.4 µM | 24.5 µM (inactive) | 51.4 µM (inactive) | 19.7 µM (inactive) | – | 42.6 µM (inactive) | 44.8 µM (inactive) | 26.2 µM (inactive) | 88.3 µM (inactive) | 26.7 µM (inactive) | > 100 µM (inactive) | – | 49.3 µM (inactive) | 37.8 µM (inactive) | 60.7 µM (inactive) | 50.6 µM (inactive)
10 | NCCN1C(=O)c2ccccc2C1(O)c1ccc(Cl)cc1 (stereo not given) | 24.5 µM (inactive) | 19.6 µM (inactive) | – | 17.8 µM (inactive) | 37.3 µM | 16.7 µM (inactive) | 36.8 µM (inactive) | 16.4 µM (inactive) | 14.2 µM (inactive) | 20.3 µM (inactive) | 17.3 µM (inactive) | 27.1 µM (inactive) | 21.9 µM (inactive) | 16.5 µM (inactive) | 23.1 µM (inactive) | 21.9 µM (inactive) | 16.1 µM (inactive) | 23.9 µM (inactive) | 14.1 µM (inactive) | 24.4 µM (inactive)
11 | CC(=O)c1c(CO[N+](=O)[O-])[n+]([O-])c2ccccc2[n+]1[O-] | > 100 µM (inactive) | 61 µM (inactive) | – | 47.4 µM (inactive) | 30.8 µM | 74.3 µM (inactive) | 45.5 µM (inactive) | > 100 µM (inactive) | 31.8 µM (inactive) | > 100 µM (inactive) | 56.6 µM (inactive) | > 100 µM (inactive) | > 100 µM (inactive) | > 100 µM (inactive) | > 100 µM (inactive) | > 100 µM (inactive) | 33.8 µM (inactive) | > 100 µM (inactive) | 53.7 µM (inactive) | > 100 µM (inactive)
12 | CCOc1ccc(/C=C2\N=C(c3ccccc3)OC2=O)cc1 | – | – | > 100 µM (inactive) | – | > 100 µM | > 100 µM (inactive) | > 100 µM (inactive) | > 100 µM (inactive) | 48.5 µM (inactive) | > 100 µM (inactive) | > 100 µM (inactive) | > 100 µM (inactive) | > 100 µM (inactive) | > 100 µM (inactive) | > 100 µM (inactive) | 83 µM (inactive) | > 100 µM (inactive) | > 100 µM (inactive) | – | > 100 µM (inactive)
13 | O=C1COc2cccnc2N1CCCCO | > 100 µM (inactive) | – | – | > 100 µM (inactive) | > 100 µM | > 100 µM (inactive) | – | > 100 µM (inactive) | > 100 µM (inactive) | > 100 µM (inactive) | > 100 µM (inactive) | – | > 100 µM (inactive) | > 100 µM (inactive) | > 100 µM (inactive) | > 100 µM (inactive) | > 100 µM (inactive) | > 100 µM (inactive) | – | > 100 µM (inactive)
14 | O=C1OCC2=C1C(c1ccc(Cl)cc1)c1cc3c(cc1O2)OCO3 (stereo not given) | 1.66 µM (inactive) | 5.55 µM (inactive) | 4.1 µM (inactive) | 3 µM (inactive) | 2.83 µM | 3.16 µM (inactive) | 6.9 µM (inactive) | 3.34 µM (inactive) | – | 3.62 µM (inactive) | 3.46 µM (inactive) | 7.43 µM (inactive) | 2.88 µM (inactive) | 3.2 µM (inactive) | 6.97 µM (inactive) | 2.49 µM (inactive) | – | 4.79 µM (inactive) | 6.41 µM (inactive) | 2.83 µM (inactive)
15 | COc1cc(/C=C2\N=C(c3ccccc3)N(/N=C/c3cc4cc(C)ccc4nc3Cl)C2=O)ccc1O | 78 µM (inactive) | 37.2 µM (inactive) | 35.5 µM (inactive) | 20.4 µM (inactive) | 40.1 µM | 25.1 µM (inactive) | – | 30.5 µM (inactive) | – | 20 µM (inactive) | 31.6 µM (inactive) | 39.2 µM (inactive) | 48.1 µM (inactive) | 12.9 µM (inactive) | 67.8 µM (inactive) | 32.7 µM (inactive) | 35.7 µM (inactive) | 37.5 µM (inactive) | – | 88.1 µM (inactive)
16 | O=C1CCCC(=O)N1n1c(Cc2ccccc2)n[nH]c1=O | > 100 µM (inactive) | > 100 µM (inactive) | – | > 100 µM (inactive) | > 100 µM | > 100 µM (inactive) | > 100 µM (inactive) | – | > 100 µM (inactive) | > 100 µM (inactive) | > 100 µM (inactive) | > 100 µM (inactive) | > 100 µM (inactive) | > 100 µM (inactive) | – | > 100 µM (inactive) | > 100 µM (inactive) | > 100 µM (inactive) | > 100 µM (inactive) | > 100 µM (inactive)
